Experimental findings from ChEMBL document CHEMBL3352581, “Structure-activity relationships of non-opioid [des-Arg(7)]-dynorphin A analogues for bradykinin receptors” (Bioorg Med Chem Lett, 2014) are described below.

The nature of data set [1]: Displacement of [3H]DALKD from bradykinin receptor in rat brain membranes by competition assay at pH 7.4. It is filed as cell membranes, Membrane. For orientation: Loss of bound radioactivity is the signal in a displacement assay; it reports binding, not function.
Data set [2] in a line: Retention time of the compound by HPLC method. Format: physicochemical.
Data set [3] can be described thus: Displacement of [3H]DALKD from bradykinin receptor in rat brain membranes by competition assay. It is filed as cell membranes, Membrane.
Data set [4] can be described thus: Displacement of [3H]DALKD from bradykinin receptor in rat brain membranes by competition assay at pH 6.8. It is filed as cell membranes, Membrane.

Where a SMILES comes first, the peptide text is derived from it. [ ]: non-standard residue; d: D form. Nle = CCCC[C@H](N)C(=O)O

Broadly, the IC50 is the concentration needed to halve the response being measured. `CC[C@H](C)[C@H](NC(=O)[C@H](CCCNC(=N)N)NC(=O)[C@H](CC(C)C)NC(=O)[C@@H](N)Cc1ccccc1)C(=O)N[C@@H](CCCNC(=N)N)C(=O)N1CCC[C@H]1C(=O)N[C@@H](CCCCN)C(=O)O` registered an IC50 in data set [1] of 0.19 µM.

Take `CCCC[C@H](NC(=O)[C@@H](N)Cc1ccccc1)C(=O)N[C@@H](CCCNC(=N)N)C(=O)N[C@H](C(=O)N[C@@H](CCCNC(=N)N)C(=O)N1CCC[C@H]1C(=O)N[C@@H](CCCCN)C(=O)O)[C@@H](C)CC`: the Retention_time in data set [2] worked out at 10.5 min.

The term pIC50 denotes the negative decadic logarithm of the IC50, by convention in mol/L. Read a low pIC50 as a high IC50. In data set [2], `CCCC[C@H](NC(=O)[C@H](CCCNC(=N)N)NC(=O)[C@H](CC(C)C)NC(=O)[C@@H](N)Cc1ccccc1)C(=O)N[C@@H](CCCNC(=N)N)C(=O)N1CCC[C@H]1C(=O)N[C@@H](CCCCN)C(=O)O` (H-FLR[Nle]RPK-OH) returned a Retention_time of 11.4 min. In data set [3], the IC50 was found to be 0.091 µM and the negative logarithm of the IC50 (pIC50) was found to be 7.04.

With `CCCC[C@H](NC(=O)[C@H](CCCNC(=N)N)NC(=O)[C@H](CCCC)NC(=O)[C@@H](N)Cc1ccccc1)C(=O)N[C@@H](CCCNC(=N)N)C(=O)N1CCC[C@H]1C(=O)N[C@@H](CCCNC(=N)N)C(=O)O` (H-F[Nle]R[Nle]RPR-OH), in data set [3], the IC50 came out at 0.087 µM and the pIC50 stood at 7.06.

As to `CC[C@H](C)[C@H](NC(=O)[C@H](CCCNC(=N)N)NC(=O)[C@@H](N)CC(C)C)C(=O)N[C@@H](CCCNC(=N)N)C(=O)O` (H-LRIR-OH), the negative logarithm of the IC50 (pIC50) stood at 5.66 in data set [4] and 5.03 in data set [1]. In addition, the Retention_time in data set [2] was found to be 7 min.

As to `CCCC[C@H](NC(=O)[C@H](CCCCN)NC(=O)[C@@H]1CCCN1C(=O)[C@H](CCCCN)NC(=O)[C@H](CCCC)NC(=O)[C@H](CCCCN)NC(=O)[C@@H](N)CCCC)C(=O)N[C@@H](CCCCN)C(=O)O` (H-[Nle]K[Nle]KPK[Nle]K-OH), in data set [3], the half-inhibitory concentration (IC50) is 0.091 µM and the negative-log IC50 (pIC50) is reported as 7.04.

In data set [2], H-FLARIRPK-OH showed a Retention_time of 11 min. Moreover, in data set [3], the IC50 amounted to 0.26 µM and the pIC50 was 6.58.

In data set [2], H-FLRAIRP-OH yielded a Retention_time of 10.3 min. In data set [3], this compound had an IC50 of 0.74 µM and a negative logarithm of the IC50 (pIC50) of 6.13.

With H-FLRIR-OH, the values for the pIC50 in data set [4] and in data set [1] were 6.12 and 5.67, respectively. Besides, in data set [2], the Retention_time is 9.6 min.

As for H-FLRIRPKLK-OH, the pIC50 is 7.2 in data set [4] and 6.95 in data set [1]. The compound also yielded a Retention_time in data set [2] of 9.7 min.

In data set [3], H-FLRIRRPK-OH gave a 50% inhibitory concentration (IC50) of 0.074 µM and a pIC50 of 7.13.

Consider H-GFLRIR-OH, for which the negative logarithm of the IC50 (pIC50) in data set [4] is listed as 6.56; in data set [1], 6.21. The Retention_time in data set [2] came to 8.2 min.

For H-GFLRIRPK-OH, the Retention_time in data set [2] worked out at 9.5 min. For the same compound, the negative logarithm of the IC50 (pIC50) in data set [1] worked out at 6.88.

Turning to H-GFLRIRPKLK-OH, the results for the negative-log IC50 (pIC50) in data set [4] and in data set [1] were 7.58 and 7.39, respectively. In data set [2], this compound registered a Retention_time of 10.4 min.

In data set [4], H-GGFLRIRPKLK-OH had a negative-log IC50 (pIC50) of 7.39. The Retention_time in data set [2] was found to be 10.4 min.

H-LARIRPKLK-OH showed a Retention_time in data set [2] of 9.2 min. The compound also yielded a pIC50 in data set [3] of 6.99.

Take H-LRAIRPKLK-OH: the Retention_time in data set [2] came out at 9.2 min. The same compound displayed a negative logarithm of the IC50 (pIC50) in data set [3] of 6.91.

H-LRIRPK-OH: the negative logarithm of the IC50 (pIC50) in data set [4] was determined as 6.71; in data set [1], 6.74. In addition, the Retention_time in data set [2] turned out to be 6.3 min.

Consider H-LRIRPKLK-OH, for which the IC50 worked out at 0.03 µM in data set [4] and 0.068 µM in data set [1]. Further, the pIC50 in data set [4] is reported as 7.52; in data set [1], 7.17.
